The values that follow come from patent US6277847A, “Herbicidal isoindolinonyl-and 3,4-dihydroisoquinolonyl-substituted heterocycles” (FMC Corporation, priority 2000, dated 2001).

Holding throughout (format): in vivo
Test [1] concerns soybean (Glycine max -- var. Winchester). The experiment in a line: pre-emergence herbicidal activity, soybean. The following applies: 1 kg/Ha, about fourteen days, read-out: pre-emergence herbicidal activity (% control) SOY. Put shortly: (§1)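 Seeds sown in soil flats and sprayed pre-emergence with a water/acetone solution of test compound at 1 kg/Ha; untreated controls kept alongside. Phytotoxicity scored after about fourteen days as percent control, 0 being no effect and 100 complete control.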

For test [2], the system named is green foxtail (Setaria viridis). The experiment in a line: pre-emergence herbicidal activity, green foxtail. The following applies: 1 kg/Ha, about fourteen days, read-out: pre-emergence herbicidal activity (% control) SETVI. Put shortly:
as §1

The test system of test [3] is morningglory (Ipomea lacunosa or Ipomea hederacea). Briefly: post-emergence herbicidal activity, morningglory. As to conditions: Ipomoea, 1 Kg/Ha, about fourteen days, read-out: post-emergence herbicidal activity (% control) IPOSS. In a few lines: (§2)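 Percent control (0–100) was rated about fourteen days after spraying of emerged, germinated plants in flats with compound dissolved in water/acetone at 1 Kg/Ha.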

Test [4] concerns common cocklebur (Xanthium strumarium L.). Briefly: post-emergence herbicidal activity, cocklebur. The following applies: 1 Kg/Ha, about fourteen days, read-out: post-emergence herbicidal activity (% control) XANPE. In a few lines: as §2
Test [5] concerns morningglory (Ipomea lacunosa or Ipomea hederacea). The experiment in a line: pre-emergence herbicidal activity, morningglory. The following applies: Ipomoea, 1 kg/Ha, about fourteen days, read-out: pre-emergence herbicidal activity (% control) IPOSS. In a few lines: as §1
In test [6] the test system is field corn (Zea mays var. Pioneer 3732). The experiment in a line: post-emergence herbicidal activity, corn. The following applies: 1 Kg/Ha, about fourteen days, read-out: post-emergence herbicidal activity (% control) CRN. In a few lines: as §2
The test system of test [7] is blackgrass (Aloepecurus myosuroides). The experiment in a line: pre-emergence herbicidal activity, blackgrass. The following applies: Alopecurus myosuroides, 1 kg/Ha, about fourteen days, read-out: pre-emergence herbicidal activity (% control) ALOMY. In a few lines:
as §1

For test [8], the system named is soybean (Glycine max -- var. Winchester). Briefly: post-emergence herbicidal activity, soybean. The following applies: 1 Kg/Ha, about fourteen days, read-out: post-emergence herbicidal activity (% control) SOY. Put shortly:
as §2

The subject of test [9] is green foxtail (Setaria viridis). The experiment in a line: post-emergence herbicidal activity, green foxtail. As to conditions: 1 Kg/Ha, about fourteen days, read-out: post-emergence herbicidal activity (% control) SETVI. Put shortly: as §2
The subject of test [10] is Johnsongrass (Sorghum halepense). Briefly: pre-emergence herbicidal activity, johnsongrass. The following applies: 1 kg/Ha, about fourteen days, read-out: pre-emergence herbicidal activity (% control) SORHA. Put shortly:
as §1

The test system of test [11] is blackgrass (Aloepecurus myosuroides). Briefly: post-emergence herbicidal activity, blackgrass. The following applies: Alopecurus myosuroides, 1 Kg/Ha, about fourteen days, read-out: post-emergence herbicidal activity (% control) ALOMY. Here is the method:
This example sets forth the methods of herbicidal testing conducted on the specific compounds set forth below. Specifically, the compounds referenced below were tested for pre- and post-emergence herbicidal activity using a variety of crops and weeds. The test plants include, but are not limited to, soybean (Glycine max -- var. Winchester), field corn (Zea mays var. Pioneer 3732), wheat (Triticum aestivum var. Lew), morningglory (Ipomea lacunosa or Ipomea hederacea), velvetleaf (Abutilon theophrasti), green foxtail (Setaria viridis), Johnsongrass (Sorghum halepense), blackgrass (Aloepecurus myosuroides), common chickweed (Stellaria media), and common cocklebur (Xanthium strumarium L.).
In the post-emergence test, seeds of the plant species named above were planted in flats containing the appropriate soil mixture where they were maintained to allow the seeds to germinate. When the plants in these flats reached the proper stage of growth, flats for the pre-emergence tests were planted in a like manner. The flats containing the post-emergence and pre-emergence test plant species were then sprayed with an appropriately concentrated water/acetone solution of test compound. Once treated the flats were maintained, along with untreated controls, for about fourteen days. All treated plants were then examined for phytotoxicity, which was expressed as percent control where 0 is no effect and 100 is complete control. Effective rates of application for the compounds of the present invention range from 0.001 to 3 kg/ha, more likely from […] to 1 Kg/ha.
Herbicidal activity data at selected application rates are in Tables 4 and 5. The test compounds are identified by numbers correspond to those in Table 1.
SOY is soybean, WHT is wheat, CRN is corn, ABUTH is velvetleaf, IPOSS is
morningglory, STEME is chickweed, XANPE is cocklebur, ALOMY is blackgrass,
Rate of application of test compound is 1 Kg/Ha. The definitions as shown under Table 4 apply to Table 5.

Test [12] relates to common cocklebur (Xanthium strumarium L.). The experiment in a line: pre-emergence herbicidal activity, cocklebur. As to conditions: 1 kg/Ha, about fourteen days, read-out: pre-emergence herbicidal activity (% control) XANPE. Put shortly:
as §1

In test [13] the test system is Johnsongrass (Sorghum halepense). Briefly: post-emergence herbicidal activity, johnsongrass. As to conditions: 1 Kg/Ha, about fourteen days, read-out: post-emergence herbicidal activity (% control) SORHA. In a few lines:
as §2

For test [14], the system named is velvetleaf (Abutilon theophrasti). The experiment in a line: pre-emergence herbicidal activity, velvetleaf. The following applies: 1 kg/Ha, about fourteen days, read-out: pre-emergence herbicidal activity (% control) ABUTH. In a few lines:
as §1

For test [15] the test system is unchanged. Briefly: post-emergence herbicidal activity, velvetleaf. As to conditions: 1 Kg/Ha, about fourteen days, read-out: post-emergence herbicidal activity (% control) ABUTH. In a few lines:
as §2

The subject of test [16] is wheat (Triticum aestivum var. Lew). Briefly: pre-emergence herbicidal activity, wheat. The following applies: 1 kg/Ha, about fourteen days, read-out: pre-emergence herbicidal activity (% control) WHT. In a few lines: as §1
Test [17] has as its system common chickweed (Stellaria media). The experiment in a line: pre-emergence herbicidal activity, chickweed. The following applies: 1 kg/Ha, about fourteen days, read-out: pre-emergence herbicidal activity (% control) STEME. In a few lines: as §1
Test [18] has as its system wheat (Triticum aestivum var. Lew). The experiment in a line: post-emergence herbicidal activity, wheat. The following applies: 1 Kg/Ha, about fourteen days, read-out: post-emergence herbicidal activity (% control) WHT. Put shortly: as §2
Test [19] has as its system common chickweed (Stellaria media). Briefly: post-emergence herbicidal activity, chickweed. As to conditions: 1 Kg/Ha, about fourteen days, read-out: post-emergence herbicidal activity (% control) STEME. Put shortly: as §2
For test [20], the system named is field corn (Zea mays var. Pioneer 3732). Briefly: pre-emergence herbicidal activity, corn. The following applies: 1 kg/Ha, about fourteen days, read-out: pre-emergence herbicidal activity (% control) CRN. In a few lines: as §1

On to `CC(C)N1Cc2c(ccc(Cl)c2-n2c(=O)cc(C(F)(F)F)n(C)c2=O)C1=O` [Compound 1], for which the activity at 1000 g/ha in test [1] came to 90%; in [2], 100%; in test [3], 70%; in test [4] it was 60%; in test [5], 100%; in test [6], 90%. The activity at 1000 g/ha in test [7] worked out at 80%; in test [8] it was 95%; in [9] it was 80%; in test [10], 90%; in test [11] it was 75%; in test [12] it was 70%. The activity at 1000 g/ha in [13] worked out at 100%; in test [14], 100%; in test [15] it was 100%; in test [16] it was 80%; in test [17], 90%; in [18] it was 70%. Besides, the activity at 1000 g/ha in test [19] was determined as 50%; in test [20], 95%.

Turning to `CC(C)N1Cc2c(-n3c(=O)cc(C(F)(F)F)n(C)c3=O)ccc(Cl)c2C1=O` [Compound 3, 3-[7-chloro-2-(1-methylethyl)isoindolin-1-on-4-yl]-1-methyl-6-trifluoromethyl-2,4(1H,3H)-pyrimidinedione], the activity at 1000 g/ha in test [1], in test [2], in [3], in [4], in test [5] and in test [6] was 100% throughout. For the same compound, the activity at 1000 g/ha in test [7] turned out to be 100%; in test [8] it was 95%; in test [9], 100%; in test [10] it was 100%; in test [11], 100%; in test [12] it was 100%. Besides, the activity at 1000 g/ha in test [13], in test [14], in test [15], in test [16], in [17] and in [18] was 100% throughout. In addition, the activity at 1000 g/ha in test [19] and in test [20] was 100% each time.

As for `CC(C)N1Cc2c(c(Cl)cc(Cl)c2-n2c(=O)cc(C(F)(F)F)n(C)c2=O)C1=O` [Compound 4], the activity at 1000 g/ha in test [1], in test [2], in test [3], in test [4], in [5] and in test [6] was 100% each time. Moreover, the activity at 1000 g/ha in test [7], in [8], in test [9], in test [10], in test [11] and in test [12] was 100% in each case. The activity at 1000 g/ha in test [13], in test [14], in [15], in test [16], in test [17] and in test [18] was 100% in each case. The activity at 1000 g/ha in test [19] and in test [20] was 100% each time.

Take `COCCN1Cc2c(-n3c(=O)cc(C(F)(F)F)n(C)c3=O)ccc(Cl)c2C1=O` [Compound 23]: the activity at 1000 g/ha in [1] was 100%; in [2], 100%; in [3], 100%; in test [4], 100%; in test [5], 100%; in test [6] it was 80%. The activity at 1000 g/ha in [8], in test [9], in [11], in test [12], in test [13] and in test [14] was 100% each time. For the same compound, the activity at 1000 g/ha in test [15], in test [16], in test [17], in test [18], in test [19] and in test [20] was 100% throughout.

Regarding `Cn1c(C(F)(F)F)cc(=O)n(-c2ccc(Cl)c3c2CN(Cc2ccc(Cl)cc2)C3=O)c1=O` [Compound 24], the activity at 1000 g/ha in test [1] was 10%; in test [2] it was 95%; in [3] it was 30%; in test [4], 80%; in [5], 30%; in test [6], 70%. The activity at 1000 g/ha in test [8] worked out at 60%; in [9], 70%; in test [11] it was 70%; in test [12], 10%; in test [13], 40%; in [14] it was 100%. The activity at 1000 g/ha in test [15] is 100%; in [16] it was 30%; in test [17], 70%; in [18], 30%; in test [19], 100%; in [20], 50%.

Turning to `CC(C)N1Cc2c(-n3nc4n(c3=O)CCCC4)ccc(Cl)c2C1=O` [Compound 83, 2-[7-chloro-2-(1-methylethyl)isoindolin-1-on-4-yl]-5,6,7,8-tetrahydro-1,2,4-triazolo[4,3-A]pyridin-3(2H)-one], the activity at 1000 g/ha in test [1] came to 5%; in test [2] it was 60%; in [3] it was 90%; in test [4], 60%; in [5] it was 60%; in test [6], 60%. Moreover, the activity at 1000 g/ha in [7] was found to be 50%; in [8], 80%; in test [9], 60%; in test [11], 50%; in test [12], 30%; in test [14] it was 100%. In addition, the activity at 1000 g/ha in test [15] worked out at 100%; in [16], 10%; in test [17], 100%; in [18] it was 30%; in test [19], 80%; in test [20], 0%.
